Results taken from patent US12564638B2 (SHANGHAITECH UNIVERSITY, priority 2019, dated 2026).

What was measured:
[1] = test system: PC9 cells (EGFR Exon 19 del, non-small cell lung cancer cells); test: Cell viability assay (WST/CCK8), PC9 cells; format: cell-based; settings: Homo sapiens, PC-9; PC9 (Exon19 Del), 72 hours, WST (CCK8); read-out: IC50 (half inhibitory concentration)
From the text: The cell lines with abnormal EGFR expression used are as follows: • HCC827 cells (EGFR Exon19 del, non-small cell lung cancer cells); • PC9 cells (EGFR Exon 19 del, non-small cell lung cancer cells); • PC9BracA1 (EGFR Exon 19 del+T790M, non-small cell lung cancer cells) • H1975 (EGFR Exon T790M+L858R mutation, non-small cell lung cancer cell line) • BT474 cells (HER2 positive breast cancer cells)
All of the half inhibitory concentrations (IC50) of these compounds of the present invention were determined with WST reagent from Fuyuan Biotec Company. The specific experiment procedures are as follows: Cancer cells were planted in 96-well-plate at the density of 3 000 cells per well with 100 μL RPMI1640 completed culture medium. In the next day, compounds with indicated concentrations were added to the cells, DMSO was used as the negative control and the EGFR TKIs were used to treat cells as the positive groups. After 72 hours drug treatment, cell viability was measured by using the WST reagent following the instructions.
The cells were treated with the gradient concentration of these compounds (the maximum concentration: 10 μM; 3-fold dilution ratio, 10 concentration gradients) for 72 hours and then incubated with the WST (CCK8) reagent to determine the cell viability.

[2] = test system: HCC827 cells (EGFR Exon19 del, non-small cell lung cancer cells); test: Cell viability assay (WST/CCK8), HCC827 cells; format: cell-based; settings: Homo sapiens, HCC827, 72 h, HCC827 (Exon19 Del), 72 hours, WST (CCK8); read-out: IC50 (half inhibitory concentration)
In short: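 Plated 3 000 cells/well in complete RPMI1640 the day before dosing; controls were DMSO (negative) and EGFR TKIs (positive).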

Row | SMILES | IC50 [1] [nM] | IC50 [2] [nM]
1 | COc1cc2ncnc(Nc3ccc(F)c(Cl)c3)c2cc1NC(=O)/C=C/CN1CCN(C(=O)CCCSc2cccc3c2CN(C2CCC(=O)NC2=O)C3=O)CC1 (stereo not shown) [SIAIS219187, (E)-N-(4-((3-chloro-4-fluorophenyl)amino)-7-methoxyquinazolin-6-yl)-4-(4-(4-((2-(2,6-dioxopiperidin-3-yl)-1-oxoisoindolin-4-yl)thio)butanoyl)piperazin-1-yl)but-2-enamide] | 33.3 | 6.7
2 | COc1cc2ncnc(Nc3ccc(F)c(Cl)c3)c2cc1NC(=O)/C=C/CN1CCN(C(=O)CCCCSc2cccc3c2CN(C2CCC(=O)NC2=O)C3=O)CC1 (stereo not shown) [SIAIS219188, (E)-N-(4-((3-chloro-4-fluorophenyl)amino)-7-methoxyquinazolin-6-yl)-4-(4-(5-((2-(2,6-dioxopiperidin-3-yl)-1-oxoisoindolin-4-yl)thio)pentanoyl)piperazin-1-yl)but-2-enamide] | 25.1 | 3.1
3 | COc1cc2ncnc(Nc3ccc(F)c(Cl)c3)c2cc1NC(=O)/C=C/CN1CCN(C(=O)CCCCCSc2cccc3c2CN(C2CCC(=O)NC2=O)C3=O)CC1 (stereo not shown) [SIAIS219189, (E)-N-(4-((3-chloro-4-fluorophenyl)amino)-7-methoxyquinazolin-6-yl)-4-(4-(6-((2-(2,6-dioxopiperidin-3-yl)-1-oxoisoindolin-4-yl)thio)hexanoyl)piperazin-1-yl)but-2-enamide] | 9.2 | 3.8
4 | COc1cc2ncnc(Nc3ccc(F)c(Cl)c3)c2cc1NC(=O)/C=C/CN1CCN(C(=O)CCCCCCSc2cccc3c2CN(C2CCC(=O)NC2=O)C3=O)CC1 (stereo not shown) [SIAIS219190, (E)-N-(4-((3-chloro-4-fluorophenyl)amino)-7-methoxyquinazolin-6-yl)-4-(4-(7-((2-(2,6-dioxopiperidin-3-yl)-1-oxoisoindolin-4-yl)thio)heptanoyl)piperazin-1-yl)but-2-enamide] | 7.2 | 18.6
5 | COc1cc2ncnc(Nc3ccc(F)c(Cl)c3)c2cc1NC(=O)/C=C/CN1CCN(C(=O)COCCSc2cccc3c2C(=O)N(C2CCC(=O)NC2=O)C3=O)CC1 (stereo not shown) [SIAIS219192, (E)-N-(4-((3-chloro-4-fluorophenyl)amino)-7-methoxyquinazolin-6-yl)-4-(4-(2-(2-((2-(2,6-dioxopiperidin-3-yl)-1,3-dioxoisoindolin-4-yl)thio)ethoxy)acetyl)piperazin-1-yl)but-2-enamide] | 8.9 | 16.4
6 | COc1cc2ncnc(Nc3ccc(F)c(Cl)c3)c2cc1NC(=O)/C=C/CN1CCN(C(=O)COCCSc2cccc3c2CN(C2CCC(=O)NC2=O)C3=O)CC1 (stereo not shown) [SIAIS219193, (E)-N-(4-((3-chloro-4-fluorophenyl)amino)-7-methoxyquinazolin-6-yl)-4-(4-(2-(2-((2-(2,6-dioxopiperidin-3-yl)-1-oxoisoindolin-4-yl)thio)ethoxy)acetyl)piperazin-1-yl)but-2-enamide] | 43.6 | 2.2
7 | COc1cc2ncnc(Nc3ccc(F)c(Cl)c3)c2cc1NC(=O)/C=C/CN1CCN(C(=O)CNc2cccc3c2C(=O)N(C2CCC(=O)NC2=O)C3=O)CC1 (stereo not shown) [SIAIS219194, (E)-N-(4-((3-chloro-4-fluorophenyl)amino)-7-methoxyquinazolin-6-yl)-4-(4-(2-((2-(2,6-dioxopiperidin-3-yl)-1,3-dioxoisoindolin-4-yl)amino)acetyl)piperazin-1-yl)but-2-enamide] | 4 | 5.3
8 | COc1cc2ncnc(Nc3ccc(F)c(Cl)c3)c2cc1NC(=O)/C=C/CN1CCN(C(=O)CSc2cccc3c2C(=O)N(C2CCC(=O)NC2=O)C3=O)CC1 (stereo not shown) [SIAIS249034, (E)-N-(4-((3-chloro-4-fluorophenyl)amino)-7-methoxyquinazolin-6-yl)-4-(4-(2-((2-(2,6-dioxopiperidin-3-yl)-1,3-dioxoisoindolin-4-yl)thio)acetyl)piperazin-1-yl)but-2-enamide] | 167 | 23
9 | COc1cc2ncnc(Nc3ccc(F)c(Cl)c3)c2cc1NC(=O)/C=C/CN1CCN(C(=O)CCSc2cccc3c2C(=O)N(C2CCC(=O)NC2=O)C3=O)CC1 (stereo not shown) [SIAIS249035, (E)-N-(4-((3-chloro-4-fluorophenyl)amino)-7-methoxyquinazolin-6-yl)-4-(4-(3-((2-(2,6-dioxopiperidin-3-yl)-1,3-dioxoisoindolin-4-yl)thio)propanoyl)piperazin-1-yl)but-2-enamide] | 56.5 | 10

Results, then the molecule that gave them:

Row | IC50 [1] [nM] | IC50 [2] [nM] | SMILES
10 | 47.7 | 8.1 | COc1cc2ncnc(Nc3ccc(F)c(Cl)c3)c2cc1NC(=O)/C=C/CN1CCN(C(=O)CCCSc2cccc3c2C(=O)N(C2CCC(=O)NC2=O)C3=O)CC1 (stereo not shown) [SIAIS249036, (E)-N-(4-((3-chloro-4-fluorophenyl)amino)-7-methoxyquinazolin-6-yl)-4-(4-(4-((2-(2,6-dioxopiperidin-3-yl)-1,3-dioxoisoindolin-4-yl)thio)butanoyl)piperazin-1-yl)but-2-enamide]
11 | 28.7 | 6.6 | COc1cc2ncnc(Nc3ccc(F)c(Cl)c3)c2cc1NC(=O)/C=C/CN1CCN(C(=O)CCCCSc2cccc3c2C(=O)N(C2CCC(=O)NC2=O)C3=O)CC1 (stereo not shown) [SIAIS249037, (E)-N-(4-((3-chloro-4-fluorophenyl)amino)-7-methoxyquinazolin-6-yl)-4-(4-(5-((2-(2,6-dioxopiperidin-3-yl)-1,3-dioxoisoindolin-4-yl)thio)pentanoyl)piperazin-1-yl)but-2-enamide]
12 | 22.9 | 4.7 | COc1cc2ncnc(Nc3ccc(F)c(Cl)c3)c2cc1NC(=O)/C=C/CN1CCN(C(=O)CCCCCSc2cccc3c2C(=O)N(C2CCC(=O)NC2=O)C3=O)CC1 (stereo not shown) [SIAIS249038, (E)-N-(4-((3-chloro-4-fluorophenyl)amino)-7-methoxyquinazolin-6-yl)-4-(4-(6-((2-(2,6-dioxopiperidin-3-yl)-1,3-dioxoisoindolin-4-yl)thio)hexanoyl)piperazin-1-yl)but-2-enamide]
13 | 18.7 | 5.2 | COc1cc2ncnc(Nc3ccc(F)c(Cl)c3)c2cc1NC(=O)/C=C/CN1CCN(C(=O)CCCCCCSc2cccc3c2C(=O)N(C2CCC(=O)NC2=O)C3=O)CC1 (stereo not shown) [SIAIS249039, (E)-N-(4-((3-chloro-4-fluorophenyl)amino)-7-methoxyquinazolin-6-yl)-4-(4-(7-((2-(2,6-dioxopiperidin-3-yl)-1,3-dioxoisoindolin-4-yl)thio)heptanoyl)piperazin-1-yl)but-2-enamide]
14 | 99 | 38.3 | COc1cc2ncnc(Nc3ccc(F)c(Cl)c3)c2cc1NC(=O)/C=C/CN1CCN(C(=O)CCC(=O)N[C@H](C(=O)N2C[C@H](O)C[C@H]2C(=O)NCc2ccc(-c3scnc3C)cc2)C(C)(C)C)CC1 [SIAIS249041, (2S,4R)-1-((S)-2-(4-(4-((E)-4-((4-((3-chloro-4-fluorophenyl)amino)-7-methoxyquinazolin-6-yl)amino)-4-oxobut-2-en-1-yl)piperazin-1-yl)-4-oxobutanamido)-3,3-dimethylbutanoyl)-4-hydroxy-N-(4-(4-methylthiazol-5-yl)benzyl)pyrrolidine-2-carboxamide]
15 | 70.6 | 19.3 | COc1cc2ncnc(Nc3ccc(F)c(Cl)c3)c2cc1NC(=O)/C=C/CN1CCN(C(=O)CCCCCCC(=O)N[C@H](C(=O)N2C[C@H](O)C[C@H]2C(=O)NCc2ccc(-c3scnc3C)cc2)C(C)(C)C)CC1 [SIAIS249043, (2S,4R)-1-((S)-2-(8-(4-((E)-4-((4-((3-chloro-4-fluorophenyl)amino)-7-methoxyquinazolin-6-yl)amino)-4-oxobut-2-en-1-yl)piperazin-1-yl)-8-oxooctanamido)-3,3-dimethylbutanoyl)-4-hydroxy-N-(4-(4-methylthiazol-5-yl)benzyl)pyrrolidine-2-carboxamide]
16 | 691 | 41.9 | COc1cc2ncnc(Nc3ccc(F)c(Cl)c3)c2cc1NC(=O)/C=C/CN1CCN(C(=O)CCOCCOCCC(=O)N[C@H](C(=O)N2C[C@H](O)C[C@H]2C(=O)NCc2ccc(-c3scnc3C)cc2)C(C)(C)C)CC1 [SIAIS249045, (2S,4R)-1-((S)-2-(3-(2-(3-(4-((E)-4-((4-((3-chloro-4-fluorophenyl)amino)-7-methoxyquinazolin-6-yl)amino)-4-oxobut-2-en-1-yl)piperazin-1-yl)-3-oxopropoxy)ethoxy)propanamido)-3,3-dimethylbutanoyl)-4-hydroxy-N-(4-(4-methylthiazol-5-yl)benzyl)pyrrolidine-2-carboxamide]
17 | 57 | 3.4 | COc1cc2ncnc(Nc3ccc(F)c(Cl)c3)c2cc1NC(=O)/C=C/CN1CCN(C(=O)CCOCCNc2cccc3c2C(=O)N(C2CCC(=O)NC2=O)C3=O)CC1 (stereo not shown) [SIAIS249046, (E)-N-(4-((3-chloro-4-fluorophenyl)amino)-7-methoxyquinazolin-6-yl)-4-(4-(3-(2-((2-(2,6-dioxopiperidin-3-yl)-1,3-dioxoisoindolin-4-yl)amino)ethoxy)propanoyl)piperazin-1-yl)but-2-enamide]
